The test system of data set [1] is sensitive green rice leafhopper (collected at Chigasaki). In words: Test 3: Effect on Sensitive Green Rice Leafhopper. It counts as in vivo. The following applies: Nephotettix cincticeps, female adults, 24 hours. The method, then: (§1) To a mixture of 20 parts of the compound of the present invention and 20 parts of Sorpol SM-200 (registered trademark for the product supplied by Toho Chemical Industrial Co., Ltd.) was added 60 parts of xylol, and the mixture was sufficiently blended. The obtained emulsifiable concentrate was diluted at a predetermined concentration with distilled water, and the obtained dilution was used.
(§2) Seedlings (having 2 to 3 leaves) of paddy rice were hydroponically cultured in a pot having a diameter of 5 cm. A chemical dilution having a concentration of 100 or 20 ppm, prepared in the same manner as described in Test 1, was applied with a sprayer at a rate of 3 ml per pot. The treated seedlings were air-dried and covered with a metal net cylinder, and female adults of resistant green rice leafhopper (collected at Nakagawara) and sensitive green rice leafhopper (collected at Chigasaki) were set, respectively, free in the pot at a density of 10 adults per pot. After of 24 hours, the numbers of killed and living adults were counted and the mortality was calculated. The test was made on three pots and the average value was calculated.

In data set [2] the test system is resistant green rice leafhopper (collected at Nakagawara). The experiment in a line: Test 3: Effect on Resistant Green Rice Leafhopper. It counts as in vivo, Nephotettix cincticeps Uhler. The following applies: Nephotettix cincticeps, 24 h, read-out: Mortality (%) Green Rice Leafhopper Collected at Nakagawara. Here is the method:
as §1, §2

The nature of data set [3]: Test 9: Toxicity Test (acute oral, mice). The following applies: mouse, in vivo, po. Here is the method:
In the fish toxicity test, the test compound was dissolved in acetone to form a 1% solution, and a predetermined amount of the solution was used. In the mouse toxicity test, the test compound of the present invention was dissolved or suspended in corn oil, and a predetermined amount of the solution or suspension was used.
A predetermined amount of a solution or suspension of a test compound in corn oil was orally administered to male mice having a body weight of 19 to 23 g (0.2 ml per 10 g of the body weight). After 7 days, the number of killed mice was counted and the influences on the mice were examined.

For another data set, the system named is green peach aphids. In words: Test 5: Effect on green peach Aphid. It counts as in vivo. The following applies: Myzus persicae, 24 hours, mortality class, read-out: Insecticidal Activity. Here is the method:
as §1
Seedlings (having 3 to 4 leaves) of an eggplant grown on a pot were inoculated with green peach aphids and the insects were allowed to grow. The number of the insects was counted. A chemical dilution having a concentration of 100 ppm, prepared in the same manner as described in Test 1, was applied with a spray gun at a rate of 10 ml per pot. Then, the pot was placed in a glass green house. After 24 hours, the number of living insects was counted and the mortality was calculated.
The test was made on three pots, and the average value was calculated. In Table 6, mark "A" indicates a mortality higher than 95%, mark "B" indicates a mortality of 80 to 95%, mark "C" indicates a mortality of 50 to 80%, and mark "D" indicates a mortality lower than 50%.

For data set [4], the system named is third-instar larvae of diamond back moth. The experiment in a line: Test 4: Effect on Diamond Back Moth. It counts as in vivo. The following applies: Plutella xylostella, 24 hours. Here is the method:
as §1
Cabbage leaves were spread in a plastic cup, and 10 third-instar larvae of diamond back moth were set free in the cup.
A chemical dilution having a concentration of 100 or 20 ppm, prepared in the same manner as described in Test 1, was applied from an applicator at a rate of 3 ml per cup.
After scattering of the chemical dilution, the cup was covered, and after 24 hours, the numbers of killed and living larvae were counted and the mortality was calculated. The test was made on three cups and the average value was calculated.

Another data set concerns German cockroach. The experiment in a line: Test 7: Effect on German Cockroach. It counts as in vivo. The following applies: Blattella germanica, male adults, 24 hours, agonized and killed; for mortality at 10 mg/m2: 10 mg/m^2; for mortality at 50 mg/m2: 50 mg/m^2. Here is the method:
The bottom face of a high Petri dish having a diameter of 9 cm and a height of 9 cm was treated with 50 or 10 mg/m^2 of a test compound and the dish was air-dried. In order to prevent the adults from escaping from the dish, the inner wall of the dish was treated with butter. Then, 10 male adults of German cockroach were set free in each dish, and the dish was placed in a thermostat chamber maintained at 25° C. After 24 hours, the number of agonized and killed adults was counted. The test was made on two dishes and the average value was calculated.

In a further data set the test system is two-spotted spider mite. In words: Test 6: Effect on Two-Spotted Spider mite adults. It counts as in vivo. The following applies: Tetranychus urticae; 500 ppm; adults; 24 hours; read-out: Mortality (%). The method, then: as §1
A kidney bean leaf disc perforated with a cork borer (15 mm in diameter) was placed on water-impreganated absorbent cotton (2 cm×2 cm), and 10 adults of two-spotted spider mite were set free. A chemical dilution having a concentration of 500 ppm was applied with an applicator in an amount of 3 ml.
The leaf disc-placed absorbent cotton was placed in a thermostat chamber maintained at 25° C. After 24 hours, the number of killed adults was counted and the mortality was calculated. The test was made on three leaf discs and the average value was calculated.

Data set [5] relates to Second-instar and fifth-instar larvae of tobacco cutworm. In words: Test 2: Tobacco Cutworm Larva Dipping Test. It counts as in vivo. The method, then: as §1
A dilution having a chemical concentration of 100 or 20 ppm was prepared in the same manner as described in Test 1.
Second-instar and fifth-instar larvae of tobacco cutworm were dipped in the dilution for 5 seconds, and the excessive dilution was removed by a filter paper. Then, the larvae were set free in a plastic cup and an artificial diet was supplied thereto. The cup was allowed to stand still in a thermostat chamber maintained at 25° C. After 24 hours, the numbers of the killed and living larvae were counted and the mortality was calculated. The test was made on three cups and the result was expressed by an average value.

Setting [6] is: 20 ppm, second-instar larvae, 24 hours, read-out: Mortality (%) Second-Instar Larvae.
The mark [7] stands for this setting: 100 ppm, second-instar larvae, 24 hours, read-out: Mortality (%) Second-Instar Larvae.
[8] abbreviates: topical, 24 h, read-out: Mortality (%) Fifth-Instar Larvae.

In general, LD50 refers to the dose at which mortality reaches 50%. A low value points to a more toxic substance.

Read-outs that look alike come from different tables or passages of the source.

`CC(C)C(COCc1ccc(F)c(Oc2ccccc2)c1)c1ccc(Cl)cc1` (stereo not shown) [Compound 8, 3-Phenoxy-4-fluorobenzyl 2-(4-chlorophenyl)-3-methylbutyl ether]: in data set [1], the mortality at 20 ppm came to 100% and the mortality at 100 ppm was found to be 100%. Also, in data set [2], the mortality at 20 ppm was 100% and the mortality at 100 ppm was determined as 100%. Moreover, the LD50 at 168 h in data set [3] is > 500 mg/kg.
Regarding `CC(C)(COCc1ccc(F)c(Oc2ccccc2)c1)c1ccc2ccccc2c1` [Compound 12, 3-Phenoxy-4-fluorobenzyl 2-(naphthalene-2-yl)-2-methylpropyl ether], the mortality at 20 ppm in data set [1] was determined as 80%; in data set [2] it was 95%. Further, the mortality at 100 ppm in data set [1] and in data set [2] was 100% in each case. Besides, the LD50 at 168 h in data set [3] is > 500 mg/kg.
For the compound `COc1ccc(Oc2cc(COCC(C)(C)c3ccc(Cl)cc3)ccc2F)cc1` [Compound 13, 3-(4-Methoxyphenoxy)-4-fluorobenzyl 2-(4-chlorophenyl)-2-methylpropyl ether], in data set [1], the mortality at 20 ppm stood at 50% and the mortality at 100 ppm was 100%. In data set [2], the mortality at 20 ppm came to 70% and the mortality at 100 ppm was 100%. Also, the LD50 at 168 h in data set [3] was > 500 mg/kg.
With `CC(C)C(C)(COCc1ccc(F)c(Oc2ccccc2)c1)c1ccc(Cl)cc1` (stereo not shown) [Compound 25, 3-phenoxy-4-fluorobenzyl 2-(4-chlorophenyl)-2,3-dimethylbutyl ether], the mortality at 100 ppm in the data set on green peach aphids lay in the range of 80 to 95%.
Turning to `CC(C)(COCc1ccc(F)c(Oc2ccccc2)c1)c1ccc(F)cc1` [Compound 29, 3-Phenoxy-4-fluorobenzyl 2-(4-fluorophenyl)-2-methylpropyl ether], the mortality at 20 ppm in data set [4], in data set [1], in data set [2], in data set [5] (setting [6]) and in data set [5] (setting [8]) was 100% in each case. In addition, the mortality at 100 ppm in data set [4], in data set [1], in data set [2], in data set [5] (setting [7]) and in data set [5] (setting [8]) was 100% each time. The mortality at 10 mg/m2 in the data set with German cockroach is 100%. This compound also returned a mortality at 50 mg/m2 with German cockroach of 100%. Besides, in the data set on two-spotted spider mite, the mortality at 500 ppm worked out at 100%. Besides, the LD50 at 168 h in data set [3] is > 500 mg/kg.
For the compound `CC(C)(COCc1cc(Oc2ccccc2)ccc1F)c1ccc(Cl)cc1` [Compound 32, 3-Phenoxy-6-fluorobenzyl 2-(4-chlorophenyl)-2-methylpropyl ether], in data set [3], the LD50 at 168 h is > 500 mg/kg.
Take `CCC(COCc1ccc(F)c(Oc2cccc(Cl)c2)c1)c1ccc(Cl)cc1` (stereo not shown) [Compound 34, 3-(3-Chlorophenoxy)-4-fluorobenzyl 2-(4-chlorophenyl)-butyl ether]: the mortality at 100 ppm with green peach aphids was in the range of 80 to 95%.
Consider `CCC(CC)(COCc1ccc(F)c(Oc2ccccc2)c1)c1ccc(Cl)cc1` [Compound 35, 3-Phenoxy-4-fluorobenzyl 2-(4-chlorophenyl)-2-ethylbutyl ether], for which, in data set [1], the mortality at 20 ppm was found to be 90% and the mortality at 100 ppm came to 100%. In data set [2], the mortality at 20 ppm was 100% and the mortality at 100 ppm is 100%. In addition, the LD50 at 168 h in data set [3] was > 500 mg/kg.
In the case of `Cc1ccc(C(C)(C)COCc2cc(Cl)cc(Oc3ccccc3)c2)cc1` [Compound 37, 3-Phenoxy-5-chlorobenzyl 2-(4-methylphenyl)-2-methylpropyl ether], the LD50 at 168 h in data set [3] was > 500 mg/kg.
`CCOCCOc1ccc(C(C)(C)COCc2ccc(F)c(Oc3ccccc3)c2)cc1` [Compound 39]: the mortality at 500 ppm with two-spotted spider mite is 100%. Besides, the LD50 at 168 h in data set [3] is > 500 mg/kg.
`CC(=O)c1ccc(C(C)(C)COCc2ccc(F)c(Oc3ccccc3)c2)cc1` [Compound 40]: in data set [3], the LD50 at 168 h was > 500 mg/kg.
Consider `CCOc1ccc(C(C)COCc2ccc(F)c(Oc3ccccc3)c2)cc1` (stereo not shown) [Compound 43], for which, in the data set on German cockroach, the mortality at 10 mg/m2 came to 100% and the mortality at 50 mg/m2 was 100%. Moreover, in data set [1], the mortality at 20 ppm came to 100% and the mortality at 100 ppm is 100%. Moreover, in data set [2], the mortality at 20 ppm worked out at 100% and the mortality at 100 ppm is 100%. The mortality at 100 ppm with green peach aphids is > 95%.
In the data set on German cockroach, `Cc1ccc2cc(C(C)(C)COCc3ccc(F)c(Oc4ccccc4)c3)ccc2c1` [Compound 44, 3-Phenoxy-4-fluorobenzyl 2-(6-methyl-2-naphthyl)-2-methylpropyl ether] gave a mortality at 10 mg/m2 of 100%. In the data set on German cockroach, the mortality at 50 mg/m2 is 100%. Moreover, the mortality at 20 ppm in data set [1] and in data set [2] was 100% each time. The mortality at 100 ppm in data set [1] was 100%; in data set [2], 100%; in the data set on green peach aphids, > 95%. Also, the mortality at 500 ppm with two-spotted spider mite was found to be 95%.
As for `CC(C)COc1ccc(C(C)(C)COCc2ccc(F)c(Oc3ccccc3)c2)cc1` [Compound 45], the mortality at 20 ppm in data set [4] was 80%; in data set [1], 100%; in data set [2] it was 100%. Also, the mortality at 100 ppm is 100% in data set [4], 100% in data set [1], 100% in data set [2] and > 95% in the data set on green peach aphids. The compound further displayed a mortality at 10 mg/m2 with German cockroach of 90%. The compound further had a mortality at 50 mg/m2 in the data set with German cockroach of 100%.
For `COc1ccc(C(C)(C)COCc2ccc(F)c(Oc3ccccc3)c2)cc1OC` [Compound 56], the mortality at 500 ppm with two-spotted spider mite was determined as 100%. Besides, the LD50 at 168 h in data set [3] was > 500 mg/kg.
In the case of `CCOc1ccc(C(C)(C)COCc2ccc(F)c(Oc3ccccc3)c2)cc1Cl` [Compound 59], the mortality at 20 ppm in data set [4], in data set [1], in data set [2], in data set [5] (setting [6]) and in data set [5] (setting [8]) was 100% throughout. The mortality at 100 ppm in data set [4], in data set [1], in data set [2], in data set [5] (setting [7]) and in data set [5] (setting [8]) was 100% in each case. In addition, the mortality at 10 mg/m2 in the data set on German cockroach stood at 100%. Besides, the mortality at 50 mg/m2 in the data set with German cockroach was 100%. The LD50 at 168 h in data set [3] was > 500 mg/kg.
Regarding `CCOc1ccc(C(C)(C)COCc2ccc(F)c(Oc3ccccc3)c2)cc1OC` [Compound 64], in the data set on German cockroach, the mortality at 10 mg/m2 was 100% and the mortality at 50 mg/m2 was found to be 100%. Moreover, in data set [1], the mortality at 20 ppm turned out to be 100% and the mortality at 100 ppm was found to be 100%. Further, the mortality at 500 ppm with two-spotted spider mite stood at 100%. Moreover, in data set [2], the mortality at 20 ppm was 100% and the mortality at 100 ppm was determined as 100%. Moreover, in the data set on green peach aphids, the mortality at 100 ppm was > 95%.

For the origin of these results see patent US4599362A, “2-aryl-ethyl ether derivatives and insecticidal and acaricidal agents containing said derivatives” (priority 1980, dated 1986).
